# Test results: ChEMBL document CHEMBL1157539, “Thousands of chemical starting points for antimalarial lead identification” (Nature, 2010)
# System: Plasmodium falciparum
# Assay: GSK_TCMDC: Inhibition of Plasmodium falciparum 3D7 in whole erythrocytes, using parasite LDH activity as an index of growth.
# Assay type: functional, organism-based
# Conditions: not given
row,SMILES,XC50 [µM]
1,O=C(C=Cc1ccccc1Br)NC1CCC(CN2CCC(c3c[nH]c4ccccc34)CC2)CC1 (stereo unspecified),0.687

# Same assay, conditions: Plasmodium falciparum, 3D7
row,SMILES,XC50 [µM]
1,COc1ccccc1N1CCN(C(C(=O)NCc2ccc(C)cc2)c2ccc(C)cc2)CC1 (stereo unspecified),0.932
2,O=C(Cn1c2ccccc2c(=O)c2ccc(Cl)cc21)Nc1ccc(C(F)(F)F)cc1,0.53
3,Cc1noc(C)c1-c1ccc(C(=C2CCCCCCC2)c2ccc(O)cc2)cc1,1.05
4,Cc1cc(N2CCCC2)nc(Nc2ccc(NC(=O)C(C)C)cc2)n1,1.1
5,CCCc1cc(Cc2cnc(N)nc2N)cc2c1OC(C)C2C (stereo unspecified),0.673
6,CCCc1cc(N2CCC(N3CCCC3)CC2)nc(Nc2ccc(Cl)cc2)n1,0.765
7,c1ccc(-c2ccc(CNCCCNc3nc4ccccc4[nH]3)cc2)cc1,0.783
8,COc1ccc(C=NN=c2cc(C)[nH]c3ccccc23)c2ccccc12,0.752
9,O=S(=O)(c1ccc(OC(F)(F)F)cc1)C1CC2CCC(C1)N2S(=O)(=O)c1ccc(Cl)c(C(F)(F)F)c1 (stereo unspecified),0.56
10,CC1CNC(c2ccc(NC(=O)Nc3ccc(C4=NC(C)CN4)cc3)cc2)=N1 (stereo unspecified),0.379
11,O=C(OCC1CCN(Cc2ccccc2)C1)c1ccc(Cl)cc1 (stereo unspecified),0.68
12,COc1ccc(CCN(C)CCOc2ccc(NC(=O)c3ccc([N+](=O)[O-])c4c(=O)c5ccccc5[nH]c34)cc2)cc1OC,0.927
13,O=C(Nc1nc2cc(S(=O)(=O)NCc3ccc(Cl)c(Cl)c3)ccc2n1CCCn1ccnc1)c1ccc(Cl)cc1,0.727
14,O=C(NC1CCN(Cc2ccccc2)CC1)c1ccc(-c2nc3cc(Cl)c(Cl)cc3[nH]2)c(F)c1,0.736
15,O=C(c1cccc(Br)c1)N1CCN(c2ccc([N+](=O)[O-])c(NC3CC3)c2)CC1,0.936
16,CCCCC1(NC(=O)[C@@H](Nc2ccc(C#N)c3ccccc23)C2CCCCC2)CCCCC1,1.12
17,Cc1cc(C(=O)Nc2ccc3c(c2)CCN3C2CCN(Cc3cccc4cc[nH]c34)C2)no1 (stereo unspecified),0.189
18,COc1cccc(Nc2c(C(N)=O)cnc3ccc(-c4ccccc4)cc23)c1,0.771
19,Cc1cc(-c2nc3ccc(N4CCN(C)CC4)cc3[nH]2)nn1Cc1cc(Cl)ccc1OCC(C)C,0.878
20,CCOc1cc(Cc2cnc(N)nc2N)cc(OC)c1OC,0.913
21,O=C(Nc1ccc(CN2CCCCC2)cc1)c1ccc(COc2ccc([N+](=O)[O-])cc2)o1,0.996
22,COc1cc2c(cc1C(F)(F)F)N(C(=O)Nc1cc(F)cc(-c3cccnn3)c1)CC2,0.275
23,COc1cc(SC)ccc1C(=O)N1CC(C)CC(C)C1 (stereo unspecified),0.354
24,N#Cc1ccc(-c2ccc3nc(N4CCCN(C5CCC5)CC4)ccc3c2)cc1,1.5
25,Cc1cnc(-c2ccc(NC(=O)c3coc4ccc(N5CC(C)N(C)C(C)C5)cc34)cc2)o1 (stereo unspecified),0.645

row,SMILES,XC50 [µM]
1,OCCNc1nc(Nc2ccc(F)cc2)nc2ccccc12,0.164
2,COc1ccc2c(NN=Cc3cccnc3)ccnc2c1,0.684
3,COc1ccc(OC)c(Cc2c(C)nc3nc(N)nc(N)c3c2C)c1,0.864
4,NC(=O)C1CCN(Cc2cccc(-c3cccc(-c4nc5cc(C(F)(F)F)ccc5[nH]4)c3)c2)CC1,0.641
5,COc1cccc(NC(=O)[C@H](C)n2c(=O)[nH]c3ccccc3c2=O)c1,0.764
6,Oc1c(C=Nn2cnnc2)sc2ccccc12,0.911
7,O=C(Nc1cccc(-c2nn3ncccc3c2-c2ccnc(Nc3cccc(C(F)(F)F)c3)n2)c1)c1c(F)cccc1F,0.648
8,Fc1ccc2cc(C=Cc3ccncc3)[nH]c2c1,0.617
9,c1ccc(-c2nc(NC3CCCCC3)cc(C3CC3)n2)nc1,0.728
10,CCOc1cc(CC)ccc1C1CCN(CCN2CCC(CNC(=O)c3ccc(-c4ccc(C#N)cc4)cc3)CC2)CC1,0.708
11,Cn1cc(CN2CCCC(COC(c3ccc(F)cc3)c3ccc(F)cc3)C2)cn1 (stereo unspecified),0.571
12,CCC1(C)N=C(N)N=C(N)N1c1ccccc1 (stereo unspecified),0.792
13,c1cc(COc2ccc(C3=NCCN3)cc2)nc(COc2ccc(C3=NCCN3)cc2)c1,0.147
14,CN(C)CC(=O)Nc1ccc(Nc2nccc(NCC(O)c3ccccc3)n2)cc1 (stereo unspecified),0.973
15,CN1CCCc2cc(NC(=O)c3cc(-c4ccc(Cl)cc4)cs3)ccc2C1,0.81
16,COc1ccc(C[C@@H](C)NC[C@H](O)c2cccc(Cl)c2)cc1F,0.867
17,Nc1ncc(-c2ccsc2)c2ccc(-c3ccc4cn[nH]c4c3)cc12,0.814
18,NOCCCCOc1ccccc1,0.177
19,COc1ccc(-c2ccc(NC(=O)c3cccc(C#N)c3)cc2)cc1CN(C)C,0.735
20,CCCCOc1cc(C)nc2ccc(NC(=O)COCC(=O)Nc3ccc4nc(C)cc(OCCCC)c4c3)cc12,1
21,Cc1[nH]c2c(NCc3ccc(F)cc3)nccc2c1C,1.36
22,Cc1cc(C)c(NC(=O)N[C@H]2CCN(CCCCCNC(=O)/C=C/c3ccc(Cl)c(Cl)c3)C2)c(C)c1,0.95
23,O=C1OC(c2ccccc2)(c2ccccc2)CN1CC1CCN(Cc2ccc(O)c(Cl)c2)CC1,0.818
24,c1ccc(-c2nc(Nc3ccncc3)sc2-c2ccccc2)cc1,0.812
25,CC1CCCN(C(=O)C(C)Nc2cc(Cl)ccc2N2CCOCC2)C1 (stereo unspecified),0.316

row,SMILES,XC50 [µM]
1,CCN(CC)C(=S)N/N=C1/C(=O)Nc2c(C)cccc21,0.863
2,Fc1ccc2[nH]c(-c3cccc(-c4cccc(CNCc5ccccc5)c4)c3)nc2c1,0.283
3,CC(C)CNCc1ccc(-c2cccc(CN(CCCN3CCN(C)CC3)C(=O)/C=C/c3ccccc3)c2)cc1,0.872
4,CCCCCN1CCCN(Cc2cccc(NC(=O)c3ccc4ccccc4c3)c2)CC1,1.22
5,COc1ccc(CNc2ccnc(-n3cnc4cc(C)c(C)cc43)n2)cc1Cl,0.274
6,COc1cc2nc(NCCc3ccccc3)nc(N(C)Cc3ccccc3)c2cc1OC,0.831
7,COc1cccc2c(NN=Cc3cccc(F)c3)ccnc12,0.932
8,Fc1ccc2[nH]c(-c3ccc(-c4ccc(CN5CCN(c6cnccn6)CC5)cc4)s3)nc2c1,0.617
9,O=C(/C=C/c1ccc(Cl)c(Cl)c1)NC1C2CCC1CC(CN1CCC(c3c[nH]c4ccccc34)CC1)C2 (stereo unspecified),0.203
10,Cc1c2ccc(N(C)c3ccnc(Nc4ccc5c(c4)nc(NC(C)C)n5C)n3)cc2nn1C,0.159
11,O=C(NC1CC1c1ccccc1)N(CCCn1ccnc1)Cc1csc(-c2ccc(CNCc3ccccc3)cc2)n1 (stereo unspecified),0.854
12,COC(=O)CCCOc1cc(Cc2cnc(N)nc2N)cc(OC)c1OC,0.767
13,O=C(Nc1cccc(-c2ccc(-c3nc4cc(C(F)(F)F)ccc4[nH]3)cc2)c1)c1ccoc1,0.714
14,O=C(Nc1cccc(-c2csc(-c3nc4ccccc4[nH]3)c2)c1)c1ccoc1,0.211
15,COc1ccc2[nH]c(-c3ccccc3)cc(=NN=Cc3ccncc3)c2c1,0.812
16,CC(C)C(=O)NC(c1cccs1)c1cc(Cl)c2cccnc2c1O (stereo unspecified),0.575
17,CCNc1cc(C(=O)N[C@@H](Cc2ccccc2)[C@H](O)CNC23CCC(CC2)CC3)cc(N2CCCCS2(=O)=O)c1,0.0633
18,O=C(C=Cc1ccccc1Br)NC1CCC(CN2CCC(c3c[nH]c4ccccc34)CC2)CC1 (stereo unspecified),0.737
19,CC1(C)NC(N)=NC(=N)N1OCCCOc1ccc([N+](=O)[O-])cc1,0.0032
20,O=C(CC(=O)C(F)(F)F)c1ccccc1[N+](=O)[O-],0.0032
21,Cc1nc(C)c(-c2ccc(C(=O)c3ccc(Cl)cc3)cc2)c(O)c1Br,0.81
22,Cc1cc(OCC2CCN(c3ccc(C(=O)NC4CC4)cn3)CC2)ccc1F,0.868
23,COc1ccccc1CNC(=O)c1cc(C2CC2)nc2c1cnn2C(C)C,1.02
24,O=C(Nc1ccc(-c2ccccc2)cc1)Nc1cccc(Cn2ncc(N3CCCNCC3)c(Cl)c2=O)c1,0.225
25,CC(C)(C)c1ccc(CN2CCC(CNC(=O)c3cc(-c4ccccc4C(F)(F)F)cs3)C2)cc1 (stereo unspecified),1.24

row,SMILES,XC50 [µM]
1,CCCNCc1ccc(-c2ccc(CN(CCOC)C(=O)COc3ccccc3Cl)cc2)nc1,0.912
2,C[C@@H](Oc1cc(-n2cnc3cc(SCCN4CCN(C)CC4)ccc32)sc1C(N)=O)c1ccccc1Cl,0.507
3,COc1ccc(-c2nc(NC(=O)CS(=O)(=O)c3ccc(F)cc3)sc2C)cc1,0.243
4,COc1nc2c(CCN3CCC(NCc4ccc5c(c4)NC(=O)CO5)CC3)c(Cl)cnc2cc1F,0.771
5,Cc1noc(C)c1CN1CCCN(c2ccc3c(c2)CCN(Cc2ccc(-c4ncc[nH]4)cc2)CC3)CC1,0.864
6,CCCCNC[C@@H](O)[C@H](Cc1ccccc1)NC(=O)c1cc(NCC)cc(N2CCCCS2(=O)=O)c1,0.398
7,COc1ccc2nccc([C@@H](O)CN3CCC(NC(=O)COc4nc(SCc5ccc(F)cc5)nc5c4CCC5)CC3)c2c1,0.595
8,O=c1cc(NCCCNCc2ccc(C(F)(F)F)s2)[nH]c2ccccc12,0.2
9,O=C(NCC(NCCCNc1cc(=O)c2ccccc2[nH]1)c1cc(Br)cc(Br)c1)C1=CCCC1 (stereo unspecified),0.901
10,CN1CCCC1CCNCc1cccc(-c2cnc(N(C)C3CCCCC3)nc2)c1 (stereo unspecified),0.853
11,CCN1CCC(N(Cc2ccc(-c3ccc(C(F)(F)F)cc3)cc2)C(=O)Cn2c(SCc3cccc(F)c3F)cc(=O)c3ccccc32)C1 (stereo unspecified),0.882
12,CC(C)(C)c1ccc2[nH]c(-c3ccc(/C=C/C(=O)NC4CCN(Cc5ccccc5)CC4)cc3)nc2c1,0.589
13,COc1ccc(Nc2c3ccc(Cl)cc3nc3ccc(OC)cc23)cc1,0.441
14,Cc1nc(-c2ccc(-c3ccc(C(=O)Nc4ccc(Cl)c(N5CCN(C)CC5)c4)cc3)c(C)c2)no1,0.743
15,CCOc1ccc2c(c1)C(C)(c1ccc3c(c1)C(C)CC(C)(C)N3)CC(C)(C)N2 (stereo unspecified),0.803
16,O=C(NC1CCN(Cc2ccccc2)CC1)c1cccc(-c2cc3cc(Cl)c(Cl)cc3[nH]2)c1,0.725
17,O=C(NCc1cccc2ccccc12)[C@@H]1CCCN1C(=O)c1ccc(O)c(-c2ccc(Cl)c(Cl)c2)c1,0.948
18,Cc1cccc2nc(-c3cccc(-c4cccc(NC(=O)Nc5ccccc5)c4)c3)[nH]c12,0.139
19,COc1cc2nc(N3CCC(CNC(=O)c4ccc(-c5ccc(-c6noc(C)n6)cc5C)cc4)CC3)nc(N)c2cc1OC,0.215
20,CCC(C)CN1CCCN(c2ccc(NC(=O)c3cccs3)cc2)CC1 (stereo unspecified),0.802
21,Cc1cc(NC(=O)c2cccs2)ccc1OC1CCN(Cc2ccccc2)C1 (stereo unspecified),0.895
22,Clc1cccc(C23N/C(=N\c4nc5ccccc5[nH]4)NC2(c2ccccc2)N/C(=N\c2nc4ccccc4[nH]2)N3)c1 (stereo unspecified),0.519
23,O=C(Nc1cccc(CN2CCN(C(=O)c3cccc(F)c3)CC2)c1)c1cccs1,0.372
24,CCCCCNc1ccnc2cc(Cl)ccc12,0.509
25,CN(C)c1ccc(OCCCCCCOc2ccccc2)cc1,0.496
